Experimental findings from patent publication US12527804B2, “Microemulsion delivery systems for alcohol-soluble species including DHEA, pregnenolone, and chrysin for reducing menopausal symptoms” (Quicksilver Scientific, Inc., priority 2021, dated 2026) are described below.

The structures appear in SMILES notation. ≈ marks a conversion by molar mass, not a printed value. Read-outs that look alike come from different tables or passages of the source.

Series [1] can be described thus: Solubility of DHEA in ethanol and MCT oil. Format: physicochemical. The text has this:
An alcohol-soluble species is a species that is insoluble in water and has a greater solubility in ethanol than in medium chain triglyceride (MCT) oils. […] Alcohol-soluble species are preferably pharmacologically active, more preferably are a drug or a supplement, and neither include nor are water. Thus, liquids and solids may exist that technically are soluble in alcohol, but because they also are soluble in water or more or equivalently soluble in MCT oils than in ethanol are not “alcohol-soluble species”.
Solubilized means that the alcohol-soluble species to be delivered is in the solution of the droplet. […] Thus, if either average particle diameters greater than 200 nm or precipitated crystals visible to the naked eye form, the alcohol-soluble species is not solubilized in the solution of the droplet. If an alcohol-soluble species is not solubilized in the solution, it is insoluble in the solution. In many respects, solubility may be thought of as a concentration dependent continuum. For example, the following descriptive terms may be used to express solubility of a solute in a solvent (grams solid/mL of solvent) at 25 degrees Celsius: […]

Series [2] concerns peri- and postmenopausal subjects. As to the kind of experiment: Combination therapy of MOIW microemulsion with progesterone, menopausal symptoms. The conditions noted are these: most perimenopausal subjects, administered daily in combination with MOIW microemulsion. Type of series: in vivo, human. Here is the method: Dosing for this combination therapy includes use of the present MOIW microemulsion as previously described with the addition of progesterone. For use in the alleviation of menopausal symptoms, from 5 mg to 18 mg of progesterone is preferably administered daily, with 8 mg to 16 mg of progesterone providing a therapeutically effective dose for postmenopausal subjects and with 8 mg to 10 mg of progesterone providing a therapeutically effective dose for perimenopausal subjects. A therapeutically effective dose for most perimenopausal subjects was determined to be approximately 8 mg.
A preferred dosing for this combination therapy includes intra-oral administration of the MOIW microemulsion ante meridiem with topical administration of the thickened MOIW post meridiem. For perimenopausal subjects using intermittent dosing of the MOIW microemulsion, the same intermittent dosing is also preferred for the thickened MOIW microemulsion progesterone topical.

For `C[C@]12CC[C@H](O)CC1=CC[C@@H]1[C@@H]2CC[C@]2(C)C(=O)CC[C@@H]12` [DHEA, dehydroepiandrosterone (3-beta-hydroxyandrosteron-5-en-17-one)], the solubility (usually the dissolved amount per volume that the medium holds) in series [1] (ethanol, organic solvent or mixture, read-out: solubility in ethanol) is around 150 mg/mL (≈ 520 mM); in series [1] (medium chain triglyceride (MCT) oil, oil or lipid, MCT oil, read-out: solubility in MCT oil), around 10 mg/mL (≈ 34.7 mM).
For `CC(=O)[C@H]1CC[C@H]2[C@@H]3CCC4=CC(=O)CC[C@]4(C)[C@H]3CC[C@]12C` [progesterone], the “therapeutically effective dose of progesterone” value in series [2] was “approximately 8 mg”.
